Our source for the Ki values is patent US9688668B2, “Long chain base sphingosine kinase inhibitors” (UNIVERSITY OF VIRGINIA PATENT FOUNDATION, priority 2012, dated 2017).

This assay deals with recombinant SphK1 (Homo sapiens (Human), UniProt Q9NYA1). The assay is described as follows: SphK1 scintillation proximity kinase assay.
Setting [1] is: read-out: SphK1 (estimated Ki range), Estimated Ki values at recombinant SphK1.

Each structure is given as a SMILES string. Read-outs that look alike come from different tables or passages of the source. Some results are limits rather than exact numbers.

Sequence of recombinant SphK1 (Q9NYA1 whole entry): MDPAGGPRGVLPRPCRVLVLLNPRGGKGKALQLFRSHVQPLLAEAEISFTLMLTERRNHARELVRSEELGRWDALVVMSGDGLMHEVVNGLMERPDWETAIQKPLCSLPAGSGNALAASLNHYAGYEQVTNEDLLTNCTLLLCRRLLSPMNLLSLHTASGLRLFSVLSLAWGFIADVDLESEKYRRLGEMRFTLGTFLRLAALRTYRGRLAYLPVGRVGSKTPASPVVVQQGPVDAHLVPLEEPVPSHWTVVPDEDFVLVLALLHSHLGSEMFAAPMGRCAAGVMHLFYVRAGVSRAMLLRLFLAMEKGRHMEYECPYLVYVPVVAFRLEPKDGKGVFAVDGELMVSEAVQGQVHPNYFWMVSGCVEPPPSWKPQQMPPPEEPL

As a reminder, the Ki is a dissociation constant, usually derived from enzyme kinetics or from competition with a known ligand. Consider `CCCCCCCCc1ccc(C(=O)NCCOC(=N)N)cc1` [Compound 33, 2-(4-octylbenzamido)ethyl carbamimidate], for which the inhibition constant Ki under setting [1] was over 10 µM.

For the compound `CCCCCCCCc1noc([C@@H]2CCCN2C(=N)N)n1` [Compound 39, (S)-2-(3-octyl-1,2,4-oxadiazol-5-yl)pyrrolidine-1-carboximidamide], the inhibition constant (Ki) under setting [1] was over 10 µM.

On to `CCCCCCc1ccc(-c2noc([C@@H]3CCN3C(=N)N)n2)cc1` [Compound 61, (S)-2-(3-(4-hexylphenyl)-1,2,4-oxadiazol-5-yl)azetidine-1-carboximidamide], for which the Ki under setting [1] was over 10 µM.

In the case of `N=C(N)N1CCC[C@H]1Cc1nc(-c2ccc(CS(=O)(=O)c3ccccc3)cc2)no1` [Compound 77, (S)-2-((3-(4-((phenylsulfonyl)methyl)phenyl)-1,2,4-oxadiazol-5-yl)methyl)pyrrolidine-1-carboximidamide], under setting [1], the inhibition constant Ki is over 10 µM.

On to `CCCCCCCCCCCCc1ccc(C(=O)NNC(=N)N)cc1` [Compound 1, 2-(4-dodecylbenzoyl)hydrazine carboximidamide], for which, under setting [1], the inhibition constant (Ki) was over 10 µM.

With `CCCCCCCCCCCCCCCCC(=N)N` [Compound 3, heptadecanimidamide], the Ki was 1 to 10 µM.

As for `CCCCCCCCCCCCCCc1ccc(-c2noc([C@@H]3CCCN3C(=N)N)n2)cc1` [Compound 57, (S)-2-(3-(4-tetradecylphenyl)-1,2,4-oxadiazol-5-yl)pyrrolidine-1-carboximidamide], under setting [1], the Ki was over 10 µM.

With `CCCCCCCCCCCc1cc(-c2noc(C3(C(=N)N)CC3)n2)ccc1OC` [Compound 14, 1-(3-(4-methoxy-3-undecylphenyl)-1,2,4-oxadiazol-5-yl)cyclopropanecarboximidamide], the Ki was under 1 µM.

With `CCCCCCCCc1ccc(-c2noc([C@@H]3CCN3C(=N)NO)n2)cc1` [Compound 65, (S)-N-hydroxy-2-(3-(4-octylphenyl)-1,2,4-oxadiazol-5-yl)azetidine-1-carboximidamide], the inhibitory constant (Ki) under setting [1] is over 10 µM.

`CCCCCCCCCCCCCCCCc1noc([C@@H]2CCCN2C(=N)N)n1` [Compound 41, (S)-2-(3-hexadecyl-1,2,4-oxadiazol-5-yl)pyrrolidine-1-carboximidamide]: under setting [1], the Ki is over 10 µM.

Regarding `CCCCCCCCCCCc1cc(-c2nnc(C3(C(=N)N)CC3)o2)ccc1OC` [Compound 27, 1-(5-(4-methoxy-3-undecylphenyl)-1,3,4-oxadiazol-2-yl)cyclopropanecarboximidamide], the Ki under setting [1] was under 1 µM.

As to `CCCCCCCCCCCCc1ccc(-c2noc(C3(C(=N)N)CC3)n2)cc1` [Compound 11, 1-(3-(4-dodecylphenyl)-1,2,4-oxadiazol-5-yl) cyclopropanecarboximidamide], the inhibition constant (Ki) is 1 to 10 µM.

For the compound `CCCCCCCCc1ccc(CC[C@@H](N)C(=N)N)cc1` [Compound 8, (R)-2-amino-4-(4-octylphenyl)butanimidamide], the Ki under setting [1] was over 10 µM.

For `CCCCCCCCCCc1ccc(-c2noc([C@@H]3CCCN3C(=N)N)n2)cc1` [Compound 54, (S)-2-(3-(4-decylphenyl)-1,2,4-oxadiazol-5-yl)pyrrolidine-1-carboximidamide], the Ki fell in the range of 1 to 10 µM.

`CCCCCCCCCCc1ccc(-c2noc(C3CN(C(=N)N)C3)n2)cc1` [Compound 67, 3-(3-(4-decylphenyl)-1,2,4-oxadiazol-5-yl)azetidine-1-carboximidamide]: the Ki under setting [1] is over 10 µM.

As for `CCCCCCCCc1ccc(CNC(=O)C2(NC(=N)N)CC2)cc1` [Compound 35, 1-guanidino-N-(4-octylbenzyl) cyclopropanecarboxamide], under setting [1], the Ki is over 10 µM.

Turning to `CCCCCCCCCCc1ccc(-c2noc([C@@H]3CCN3C(=N)N)n2)cc1` [Compound 63, (S)-2-(3-(4-decylphenyl)-1,2,4-oxadiazol-5-yl)azetidine-1-carboximidamide], the Ki was 1 to 10 µM.

Consider `CCCCCCCCCCCCc1ccc(-c2coc(CC(=N)N)n2)cc1` [Compound 19, 2-(4-(4-dodecylphenyl)oxazol-2-yl)acetimidamide], for which the inhibitory constant (Ki) under setting [1] was over 10 µM.

As for `CCCCCCCCCCCc1ccc(-c2noc(C3(NC(=N)N)CC3)n2)cc1` [Compound 43, 1-(1-(3-(4-undecylphenyl)-1,2,4-oxadiazol-5-yl)cyclopropyl)guanidine], the Ki under setting [1] is over 10 µM.

For `CCCCCCCCc1ccc(-c2noc(CN(C)C(=N)N)n2)cc1` [Compound 45, 1-methyl-1-((3-(4-octylphenyl)-1,2,4-oxadiazol-5-yl)methyl)guanidine], the Ki under setting [1] is over 10 µM.

For `CCCCCCCCc1ccc(-c2noc([C@@H]3CCN(C(=N)N)C3)n2)cc1` [Compound 59, (R)-3-(3-(4-octylphenyl)-1,2,4-oxadiazol-5-yl)pyrrolidine-1-carboximidamide], the inhibition constant Ki under setting [1] is over 10 µM.

In the case of `CCCCCCCCc1ccc(-c2noc([C@H](C)NC(=N)N)n2)cc1` [Compound 47, (S)-1-(1-(3-(4-octylphenyl)-1,2,4-oxadiazol-5-yl)ethyl)guanidine], the Ki was in the range of 1 to 10 µM.

Turning to `CCCCCCCCCCc1ccc(CCCC(=N)N)cc1` [Compound 5, 4-(4-decylphenyl)butanimidamide], the inhibition constant (Ki) under setting [1] was over 10 µM.

Take `CCCCCCCCc1ccc(-c2noc(C3(NC(=N)N)CC3)n2)cc1` [Compound 42, 1-(1-(3-(4-octylphenyl)-1,2,4-oxadiazol-5-yl)cyclopropyl)guanidine]: the inhibition constant (Ki) under setting [1] was over 10 µM.

`CCCCCCCCc1cccc(-c2noc(C[C@@H]3CCCN3C(=N)N)n2)c1` [Compound 74, (S)-2-((3-(3-octylphenyl)-1,2,4-oxadiazol-5-yl)methyl)pyrrolidine-1-carboximidamide]: the Ki under setting [1] is over 10 µM.

Turning to `CCCCCCCCCCCCC/C=C/CC(=N)N` [Compound 4, (E)-heptadec-3-enimidamide], the inhibition constant (Ki) under setting [1] was over 10 µM.

For the compound `CCCCCCCCc1ccc(-c2noc([C@@H](NC(=N)N)C(C)C)n2)cc1` [Compound 48, (S)-1-(2-methyl-1-(3-(4-octylphenyl)-1,2,4-oxadiazol-5-yl)propyl)guanidine], the Ki fell in the range of 1 to 10 µM.

Consider `N=C(N)N1CCC[C@H]1c1nc(-c2ccc(C#CC3CCCC3)cc2)no1` [Compound 38, (S)-2-(3-(4-(cyclopentylethynyl)phenyl)-1,2,4-oxadiazol-5-yl)pyrrolidine-1-carboximidamide], for which, under setting [1], the inhibitory constant (Ki) was over 10 µM.

For the compound `CCCCCCCCCCCCc1ccc(-c2noc(CC(=N)N)n2)cc1` [Compound 12, 2-(3-(4-dodecylphenyl)-1,2,4-oxadiazol-5-yl)acetimidamide], under setting [1], the inhibition constant Ki was over 10 µM.

Take `N=C(N)N1CCC[C@H]1c1nc(-c2ccc(I)cc2)no1` [Compound 37, (S)-2-(3-(4-iodophenyl)-1,2,4-oxadiazol-5-yl)pyrrolidine-1-carboximidamide]: the Ki under setting [1] was over 10 µM.

As to `CCCCCCCCc1ccc([C@H]2CC[C@H](NC(=N)N)CC2)cc1` [Compound 34, 1-((1R,4R)-4-(4-octylphenyl)-cyclohexyl)guanidine], the inhibitory constant (Ki) was in the range of 1 to 10 µM.

As to `CCCCCCCCCCCCC/C=C/[C@@H](O)[C@@H](N)C(=N)N` [Compound 2, (2S,3R,E)-2-amino-3-hydroxyoctadec-4-enimidamide], under setting [1], the Ki was over 10 µM.

For the compound `CCCCCCCCCCCCc1noc(C[C@@H]2CCCN2C(=N)N)n1` [Compound 76, (S)-2-((3-dodecyl-1,2,4-oxadiazol-5-yl)methyl)pyrrolidine-1-carboximidamide], the Ki under setting [1] is over 10 µM.

On to `CCCCCCc1ccc(-c2noc([C@@H]3CCCN3C(=N)N)n2)cc1` [Compound 56, (S)-2-(3-(4-hexylphenyl)-1,2,4-oxadiazol-5-yl)pyrrolidine-1-carboximidamide], for which the Ki is over 10 µM.

Regarding `CCCCCCCCCCCc1cc(-c2nnc(C3(C(=N)N)CC3)o2)c(OC)cc1OC` [Compound 22, 1-(5-(2,4-dimethoxy-5-undecylphenyl)-1,3,4-oxadiazol-2-yl)cyclopropanecarboximidamide], under setting [1], the Ki is under 1 µM.

Take `CCCCCCCCc1ccc(-c2noc(C3CN(C(=N)N)C3)n2)cc1` [Compound 66, 3-(3-(4-octylphenyl)-1,2,4-oxadiazol-5-yl)azetidine-1-carboximidamide]: the inhibitory constant (Ki) is 1 to 10 µM.

In the case of `CCCCCCCCc1cccc(-c2noc([C@@H]3CCCN3C(=N)N)n2)c1` [Compound 58, (S)-2-(3-(3-octylphenyl)-1,2,4-oxadiazol-5-yl)pyrrolidine-1-carboximidamide], the inhibition constant Ki under setting [1] was over 10 µM.

As to `CCCCCCCCCCCCc1ccc(-c2noc(C3(NC(=N)N)CC3)n2)cc1` [Compound 44, 1-(1-(3-(4-dodecylphenyl)-1,2,4-oxadiazol-5-yl)cyclopropyl)guanidine], the inhibition constant Ki under setting [1] is over 10 µM.

Take `N=C(N)N1CC[C@H]1c1nc(-c2ccc(-c3ccccc3)cc2)no1` [Compound 60, (S)-2-(3-([1,1′-biphenyl]-4-yl)-1,2,4-oxadiazol-5-yl)azetidine-1-carboximidamide]: the Ki is over 10 µM.

Take `CCCCCCCCCCCCc1noc([C@@H]2CCCN2C(=N)N)n1` [Compound 40, (S)-2-(3-dodecyl-1,2,4-oxadiazol-5-yl)pyrrolidine-1-carboximidamide]: the Ki under setting [1] is over 10 µM.

On to `CCCCCCCCCCCCc1ccc(-c2noc([C@@H]3CCCN3C(=N)N)n2)cc1` [Compound 55, (S)-2-(3-(4-dodecylphenyl)-1,2,4-oxadiazol-5-yl)pyrrolidine-1-carboximidamide], for which the inhibitory constant (Ki) was over 10 µM.

On to `CCCCCCCCCCCCc1ccc(-c2coc(C(C)C(=N)N)n2)cc1` (stereo not shown) [Compound 18, 2-(4-(4-dodecylphenyl)oxazol-2-yl)propanimidamide], for which the Ki under setting [1] was over 10 µM.

In the case of `CCCCCCCCCCCc1ccc(OC)c(-c2nnc(C3(C(=N)N)CC3)o2)c1` [Compound 24, 1-(5-(2-methoxy-5-undecylphenyl)-1,3,4-oxadiazol-2-yl)cyclopropanecarboximidamide], under setting [1], the Ki is under 1 µM.

Regarding `CCCCCCCCCCCCc1ccc(NC(=O)C2(NC(=N)N)CC2)cc1` [Compound 36, N-(4-dodecylphenyl)-1-guanidinocyclopropane-carboxamide], under setting [1], the Ki is over 10 µM.

Regarding `CCCCCCCCCCc1ccc(/C=C/CC(=N)N)cc1` [Compound 6, (E)-4-(4-decylphenyl)but-3-enimidamide], the Ki under setting [1] is over 10 µM.

`CCCCCCCCc1ccc(-c2noc(CNC(=N)N)n2)cc1` [Compound 46, 1-((3-(4-octylphenyl)-1,2,4-oxadiazol-5-yl)methyl)guanidine]: the Ki was 1 to 10 µM.
